Consider 3 compounds from US10576084B2, “Salt of fused heterocyclic derivative and crystal thereof” (KISSEI PHARMACEUTICAL CO., LTD., priority 2010, dated 2020).

The bioavailability is dose-corrected exposure relative to a reference, in per cent. Low values mean poor availability, high ones good availability.

A short description of data set [1]: Stability test (storage under 90° C. open conditions, purity by HPLC). Format: physicochemical. As for the experimental part: Stability Test The compound (A) obtained in Example 2 was stored under 90° C. open conditions to examine stability. In stability measurement, the purity of a sample was measured by HPLC at the initial point and after 8 days, and the results were compared. The HPLC measurement conditions are as follows. Measurement Conditions • Detector: Ultraviolet and visible spectrophotometer/wavelength: 225 nm • Column: GL Science Inertsil ODS-3,5 μm, 4.6×250 mm • Column temperature: Constant temperature around 35° C. • Flow rate: 1.0 mL/min • Mobile phase A: 10 mM potassium dihydrogen phosphate aqueous solution adjusted to pH 5.5 with potassium hydroxide aqueous solution • Mobile phase B: Acetonitrile • (Mobile phase ratios are shown in Table 4) • Area measurement range: 54 minutes from the start of the analysis. Areas of the peaks in the blank were excluded from the calculations.

A further data set in a line: in vivo. Also on record: species or system SD rats. The following applies: male, SD, rat; for maximum drug concentration time (Tmax): po, 3 mg/kg. The protocol:
Assay for Oral Absorbability
1) Preparation of Sample for Drug Concentration Measurement by Administration through Tail Vein
SD rats (Charles River, male, 7 weeks of age, 170 to 210 g) were used as experimental animals after fasting the rats overnight. N,N-dimethylacetamide (0.2 mL), saline (0.798 mL) and 2N-NaOH (0.002 mL) were added in these amounts with respect to 1 mg of the compound (B) to prepare a 1.0 mg/mL solution. The solution was then administered in a 1 mL/kg dose (1 mg/kg) through the tail vein under no anesthesia (3 samples). The intravenous administration through tail was performed using a 26G injection needle and a 1 mL syringe. Blood was collected through the subclavian veins after 2, 15, 60, 120, 240 and 360 minutes from the intravenous administration through tail. The blood was centrifuged, and the plasma was used as a sample for blood drug concentration measurement.
2) Preparation of Sample for Drug Concentration Measurement by Oral Administration
SD rats (Charles River, male, 7 weeks of age, 220 to 290 g) were used as experimental animals after fasting the rats overnight. A 0.5% methylcellulose aqueous solution (5 mL) was added with respect to 3 mg of compound (A) or compound (B) (in terms of a free compound) to prepare a 0.6 mg/mL drug solution. Each solution was orally administered to the rats in a 5 mL/kg dose (3 mg/kg) (3 samples each). The oral administration was performed using a rat sonde and a 2.5-mL syringe. […]
A suitable internal standard substance solution (0.1 mL) was added to the blood plasma (0.025 mL) obtained in 1) and 2) using an ordinary method. […] Blood plasma drug concentration was measured using the LC-MS/MS technique under the conditions below. […]
Bioavailability (%) was calculated from the value of the area under the blood drug concentration-time curve determined by using a WinNonlin Professional (Pharsight Corporation) from the blood drug concentration at each time point obtained as above after the intravenous administration of the compound (B) through tail and the oral administration of the compound (A) or the compound (B).

The format of data set [2] is physicochemical. Particulars: for saturation solubility in 1st fluid: pH 1.2; for saturation solubility in 2nd fluid: pH 6.8. The protocol:
Saturation Solubility Test
The compound (A) obtained in Example 2, the compound (B) crystals obtained in Comparative Example 2, and the compound (C) obtained in Comparative Example 3 were suspended in water, or in 1st fluid for dissolution test (hereinafter, referred to as “1st fluid”) or 2nd fluid (hereinafter, referred to as “2nd fluid”) described in the Reagents·Test Solutions for General Tests, the Japanese Pharmacopoeia, 15th Edition. The suspensions were incubated at 37° C. After filtering a part of the suspensions, the concentrations of the resulting filtrates were measured by HPLC, and the saturation solubilities were calculated and compared. The HPLC measurement conditions are as follows.
• Detector: Ultraviolet and visible spectrophotometer /wavelength: 225 nm • Column: GL Science Inertsil ODS-3,5 μm, 4.6×250 mm • Column temperature: a constant temperature of around 35° C. • Flow rate: 1.0 mL/min • Mobile phase A: 10 mM potassium dihydrogen phosphate aqueous solution adjusted to pH 5.5 with potassium hydroxide aqueous solution • Mobile phase B: Acetonitrile • Mobile phase ratio 0 to 30 min: mobile phase A/mobile phase B=70/30
The saturation solubility values of compound (A), compound (B) crystals, and compound (C) in water, 1st fluid, and 2nd fluid are shown in Table 2. […] The saturation solubility of compound (A) in 1st fluid was about 30 times and about 2 times higher than those of compound (B) crystals and compound (C), respectively. In 2nd fluid, the saturation solubility of compound (A) was about 10 times and about 70 times higher than those of compound (B) crystals and compound (C), respectively.

Where a name gives a salt, the structure may show the parent alone.

As to `COc1cc(F)c(-n2c(=O)[nH]c3csc(C(=O)O)c3c2=O)cc1OCc1c(OC)ccc(F)c1F` (single isomer, unassigned) [compound (A), 3-[2-fluoro-5-(2,3-difluoro-6-methoxybenzyloxy)-4-methoxyphenyl]-2,4-dioxo-1,2,3,4-tetrahydrothieno[3,4-d]pyrimidine-5-carboxylic acid choline salt], in data set [1] (after 8 days under 90° C. open conditions), the “Purity (%) after 8 days” value is given as 99.6%. The “Purity (%) at initial point” value in data set [1] (initial point, before storage) worked out at 99.6%. In addition, in the data set “in vivo”, the bioavailability was around 59% and the “maximum drug concentration time (Tmax)” value was 0.583 h. Further, in data set [2], the “saturation solubility in water” value worked out at 4165 µg/mL, the “saturation solubility in 1st fluid” value is 4 µg/mL and the “saturation solubility in 2nd fluid” value came out at 3738 µg/mL.

As for `COc1cc(F)c(-n2c(=O)[nH]c3csc(C(=O)O)c3c2=O)cc1OCc1c(OC)ccc(F)c1F.COc1cc(F)c(-n2c(=O)[nH]c3csc(C(=O)O)c3c2=O)cc1OCc1c(OC)ccc(F)c1F.c1ccc(CNCCNCc2ccccc2)cc1` [compound (C), 3-[2-Fluoro-5-(2,3-difluoro-6-methoxybenzyloxy)-4-methoxyphenyl]-2,4-dioxo-1,2,3,4-tetrahydrothieno[3,4-d]pyrimidine-5-carboxylic acid.1/2N,N′-dibenzylethylenediamine salt, reference compound], in data set [2], the “saturation solubility in water” value was 68 µg/mL, the “saturation solubility in 1st fluid” value worked out at 2 µg/mL and the “saturation solubility in 2nd fluid” value was found to be 52 µg/mL.

In the case of `COc1cc(F)c(-n2c(=O)[nH]c3csc(C(=O)O)c3c2=O)cc1OCc1c(OC)ccc(F)c1F` (single isomer, unassigned) [compound (B), 3-[2-fluoro-5-(2,3-difluoro-6-methoxybenzyloxy)-4-methoxyphenyl]-2,4-dioxo-1,2,3,4-tetrahydrothieno[3,4-d]pyrimidine-5-carboxylic acid, reference compound], the “maximum drug concentration time (Tmax)” value in “in vivo” turned out to be 3.33 h. Moreover, in data set [2], the “saturation solubility in water” value amounted to 7 µg/mL, the “saturation solubility in 1st fluid” value worked out at 0.14 µg/mL and the “saturation solubility in 2nd fluid” value amounted to 367 µg/mL.
